This note sets out measurements from ChEMBL document CHEMBL4152313, “Design, synthesis and bioevaluation of 2-mercapto-6-phenylpyrimidine-4-carboxylic acid derivatives as potent xanthine oxidase inhibitors” (Eur J Med Chem, 2018).

This assay deals with Xanthine dehydrogenase/oxidase (Homo sapiens, UniProt P47989). Nature of the assay: Inhibition of xanthine oxidase (unknown origin) using xanthine as substrate preincubated for 5 mins followed by substrate addition measured for 20 mins by spectrophotometric method.
Chain of Xanthine dehydrogenase/oxidase (P47989 whole entry): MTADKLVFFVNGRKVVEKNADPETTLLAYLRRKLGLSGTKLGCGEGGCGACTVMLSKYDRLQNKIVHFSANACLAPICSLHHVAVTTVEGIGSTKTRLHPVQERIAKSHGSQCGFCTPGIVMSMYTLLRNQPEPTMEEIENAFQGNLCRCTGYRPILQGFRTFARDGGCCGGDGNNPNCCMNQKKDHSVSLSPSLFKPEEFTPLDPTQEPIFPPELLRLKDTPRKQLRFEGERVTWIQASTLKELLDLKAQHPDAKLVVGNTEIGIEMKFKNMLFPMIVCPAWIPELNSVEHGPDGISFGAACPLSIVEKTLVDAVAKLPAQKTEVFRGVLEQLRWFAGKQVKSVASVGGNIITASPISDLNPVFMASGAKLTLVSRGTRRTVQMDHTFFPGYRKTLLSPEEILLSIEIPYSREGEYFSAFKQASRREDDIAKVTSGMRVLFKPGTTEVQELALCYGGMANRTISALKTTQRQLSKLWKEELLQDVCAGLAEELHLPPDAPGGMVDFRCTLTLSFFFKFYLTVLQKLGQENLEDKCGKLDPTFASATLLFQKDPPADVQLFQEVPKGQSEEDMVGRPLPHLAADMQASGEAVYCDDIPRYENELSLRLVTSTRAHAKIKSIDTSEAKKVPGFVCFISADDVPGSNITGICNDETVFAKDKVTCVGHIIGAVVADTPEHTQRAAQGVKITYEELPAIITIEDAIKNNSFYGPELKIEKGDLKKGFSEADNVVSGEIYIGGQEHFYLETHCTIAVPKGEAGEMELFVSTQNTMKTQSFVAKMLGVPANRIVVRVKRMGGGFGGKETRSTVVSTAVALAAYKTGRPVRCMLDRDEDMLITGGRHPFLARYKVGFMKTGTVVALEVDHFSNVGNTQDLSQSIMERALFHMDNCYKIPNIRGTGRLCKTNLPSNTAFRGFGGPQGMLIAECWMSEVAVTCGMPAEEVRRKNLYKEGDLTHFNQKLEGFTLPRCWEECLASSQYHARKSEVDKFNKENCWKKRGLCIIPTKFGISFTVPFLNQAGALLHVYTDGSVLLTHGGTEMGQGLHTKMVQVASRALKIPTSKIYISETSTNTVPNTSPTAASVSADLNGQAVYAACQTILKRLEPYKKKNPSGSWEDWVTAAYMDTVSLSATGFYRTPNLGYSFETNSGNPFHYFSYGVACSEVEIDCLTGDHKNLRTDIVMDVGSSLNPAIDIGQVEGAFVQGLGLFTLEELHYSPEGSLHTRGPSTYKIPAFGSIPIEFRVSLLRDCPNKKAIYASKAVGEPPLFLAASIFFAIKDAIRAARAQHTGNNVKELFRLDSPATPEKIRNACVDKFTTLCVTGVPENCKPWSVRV

In turn, `Cc1nc(-c2ccc(OCC(C)C)c(C#N)c2)sc1C(=O)O` [FEBUXOSTAT] returned an IC50 of 13 nM.
